# Data as given in patent publication US20250098679A1, “HERBICIDAL PYRIDONE DERIVATIVES” (SYNGENTA CROP PROTECTION AG, priority 2021, published 2025).
# Columns and labels:
# Type in all cases: in vivo
# Conditions in all cases: evaluated after 13 days
# Setaria faberi (SETFA) [1] = assay: Pre-emergence Test, Setaria faberi (SETFA)
# [2] = tested on: Echinochloa crus-galli (ECHCG); assay: Pre-emergence Test, Echinochloa crus-galli (ECHCG)
# Zea mays (ZEAMX) [3] = assay: Pre-emergence Test, Zea mays (ZEAMX)
# [4] = tested on: Ipomoea hederacea (IPOHE); assay: Pre-emergence Test, Ipomoea hederacea (IPOHE)
# [5] = tested on: Amaranthus palmeri (AMAPA); assay: Pre-emergence Test, Amaranthus palmeri (AMAPA)
# [6] = tested on: Amaranthus retoflexus (AMARE); assay: Pre-emergence Test, Amaranthus retoflexus (AMARE)
# Setaria faberi (SETFA) [7] = assay: Post-emergence Test, Setaria faberi (SETFA); parameters: key to percentage damage caused to the plant, SETFA (five-point scale): 5=81-100%, 4=61-80%, 3=41-60%, 2=21-40%, 1=0-20% damage
# How it was run: (§1)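 Application was a spray of acetone/water (50:50) with 0.5% Tween 20 onto pots of test species sown in standard soil. Unless otherwise stated, the rate was 1000 g/ha. After 13 days under glasshouse conditions (24/16 °C, 65% humidity), injury was scored from 1 (0-20%) to 5 (81-100%).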
# [8] = tested on: Echinochloa crus-galli (ECHCG); assay: Post-emergence Test, Echinochloa crus-galli (ECHCG); parameters: key to percentage damage caused to the plant, ECHCG (five-point scale): 5=81-100%, 4=61-80%, 3=41-60%, 2=21-40%, 1=0-20% damage
# How it was run: as §1
# Zea mays (ZEAMX) [9] = assay: Post-emergence Test, Zea mays (ZEAMX); parameters: key to percentage damage caused to the plant, ZEAMX (five-point scale): 5=81-100%, 4=61-80%, 3=41-60%, 2=21-40%, 1=0-20% damage
# How it was run: as §1
# [10] = tested on: Ipomoea hederacea (IPOHE); assay: Post-emergence Test, Ipomoea hederacea (IPOHE); parameters: key to percentage damage caused to the plant, IPOHE (five-point scale): 5=81-100%, 4=61-80%, 3=41-60%, 2=21-40%, 1=0-20% damage
# How it was run: as §1
# [11] = tested on: Amaranthus palmeri (AMAPA); assay: Post-emergence Test, Amaranthus palmeri (AMAPA); parameters: key: 5=81-100%, 4=61-80%, 3=41-60%, 2=21-40%, 1=0-20% damage
# How it was run: as §1
# [12] = tested on: Amaranthus retoflexus (AMARE); assay: Post-emergence Test, Amaranthus retoflexus (AMARE); parameters: key to percentage damage caused to the plant, AMARE (five-point scale): 5=81-100%, 4=61-80%, 3=41-60%, 2=21-40%, 1=0-20% damage
# How it was run: as §1
SMILES,"Pre-emergence Test SETFA, percentage damage caused to the plant (five-point scale) (Setaria faberi (SETFA) [1]; 1000 g/ha)","Pre-emergence Test ECHCG, percentage damage caused to the plant (five-point scale) ([2]; 1000 g/ha)","Pre-emergence Test ZEAMX, percentage damage caused to the plant (five-point scale) (Zea mays (ZEAMX) [3]; 1000 g/ha)","Pre-emergence Test IPOHE, percentage damage caused to the plant (five-point scale) ([4]; 1000 g/ha)","Pre-emergence Test AMAPA, percentage damage caused to the plant (five-point scale) ([5]; 1000 g/ha)","Pre-emergence Test AMARE, percentage damage caused to the plant (five-point scale) ([6]; 1000 g/ha)","percentage damage caused to the plant, SETFA (five-point scale) (Setaria faberi (SETFA) [7]; 250 g/Ha)","percentage damage caused to the plant, SETFA (five-point scale) (Setaria faberi (SETFA) [7]; 1000 g/ha)","percentage damage caused to the plant, ECHCG (five-point scale) ([8]; 250 g/Ha)","percentage damage caused to the plant, ECHCG (five-point scale) ([8]; 1000 g/ha)","percentage damage caused to the plant, ZEAMX (five-point scale) (Zea mays (ZEAMX) [9]; 250 g/Ha)","percentage damage caused to the plant, ZEAMX (five-point scale) (Zea mays (ZEAMX) [9]; 1000 g/ha)","percentage damage caused to the plant, IPOHE (five-point scale) ([10]; 250 g/Ha)","percentage damage caused to the plant, IPOHE (five-point scale) ([10]; 1000 g/ha)","percentage damage caused to the plant, AMAPA (five-point scale) ([11]; 250 g/Ha)","percentage damage caused to the plant, AMAPA (five-point scale) ([11]; 1000 g/ha)","percentage damage caused to the plant, AMARE (five-point scale) ([12]; 250 g/Ha)","percentage damage caused to the plant, AMARE (five-point scale) ([12]; 1000 g/ha)",also measured
"CCn1c(Cn2cc(C)c(C(F)(F)F)n2)cc(=O)c(C(=O)O)c1-c1ccc(Cl)c(Cl)c1 [Compound 96, 2-(3,4-dichlorophenyl)-1-ethyl-6-[[4-methyl-3-(trifluoromethyl)pyrazol-1-yl]methyl]-4-oxo-pyridine-3-carboxylic acid]",3 (3=41-60%),3 (3=41-60%),0,1 (1=0-20%),1 (1=0-20%),1 (1=0-20%),0,3 (3=41-60%),2 (2=21-40%),2 (2=21-40%),0,4 (4=61-80%),0,0,0,0,0,1 (1=0-20%),
"CCn1c(Cn2nccc2C#N)cc(=O)c(C(=O)O)c1-c1ccc(Cl)c(Cl)c1 [Compound 176, 6-[(5-cyanopyrazol-1-yl)methyl]-2-(3,4-dichlorophenyl)-1-ethyl-4-oxo-pyridine-3-carboxylic acid]",4 (4=61-80%),4 (4=61-80%),0,1 (1=0-20%),2 (2=21-40%),0,2 (2=21-40%),4 (4=61-80%),2 (2=21-40%),4 (4=61-80%),0,1 (1=0-20%),2 (2=21-40%),3 (3=41-60%),0,,0,3 (3=41-60%),"Pre-emergence Test SETFA, percentage damage caused to the plant (five-point scale) (Setaria faberi (SETFA) [1]; 250 g/Ha (*)): 4 (4=61-80%); Pre-emergence Test ECHCG, percentage damage caused to the plant (five-point scale) ([2]; 250 g/Ha (*)): 2 (2=21-40%); Pre-emergence Test ZEAMX, percentage damage caused to the plant (five-point scale) (Zea mays (ZEAMX) [3]; 250 g/Ha (*)): 0; Pre-emergence Test IPOHE, percentage damage caused to the plant (five-point scale) ([4]; 250 g/Ha (*)): 0; Pre-emergence Test AMAPA, percentage damage caused to the plant (five-point scale) ([5]; 250 g/Ha (*)): 1 (1=0-20%); Pre-emergence Test AMARE, percentage damage caused to the plant (five-point scale) ([6]; 250 g/Ha (*)): 0"
"CCn1c(Cn2nc(C)cc2O)cc(=O)c(C(=O)O)c1-c1ccc(Cl)c(Cl)c1 [Compound 146, 2-(3,4-dichlorophenyl)-1-ethyl-6-[(5-hydroxy-3-methyl-pyrazol-1-yl)methy]-4-oxo-pyridine-3-carboxylic acid]",1 (1=0-20%),1 (1=0-20%),0,0,0,0,,1 (1=0-20%),,0,,0,,0,,0,,0,
"CCn1c(Cn2ccc(C(F)(F)F)n2)cc(=O)c(C(=O)O)c1-c1ccc(F)c(F)c1 [Compound 31, 2-(3,4-difluorophenyl)-1-ethyl-4-oxo-6-[[3-(trifluoromethyl)pyrazol-1-yl]methyl]pyridine-3-carboxylic acid]",5 (5=81-100%),5 (5=81-100%),0,1 (1=0-20%),0,0,4 (4=61-80%),4 (4=61-80%),2 (2=21-40%),4 (4=61-80%),1 (1=0-20%),3 (3=41-60%),4 (4=61-80%),2 (2=21-40%),0,2 (2=21-40%),1 (1=0-20%),2 (2=21-40%),
"CCn1c(Cn2ccc(OC)n2)cc(=O)c(C(=O)O)c1-c1ccc(Cl)c(Cl)c1 [Compound 38, 2-(3,4-dichlorophenyl)-1-ethyl-6-[(3-methoxypyrazol-1-yl)methyl]-4-oxo-pyridine-3-carboxylic acid]",5 (5=81-100%),5 (5=81-100%),5 (5=81-100%),4 (4=61-80%),3 (3=41-60%),2 (2=21-40%),4 (4=61-80%),4 (4=61-80%),3 (3=41-60%),4 (4=61-80%),2 (2=21-40%),4 (4=61-80%),4 (4=61-80%),3 (3=41-60%),1 (1=0-20%),4 (4=61-80%),2 (2=21-40%),4 (4=61-80%),
